Measurements: patent US20130072430A1, “METHODS FOR TREATMENT OR PROPHYLAXIS OF KIDNEY OR LIVER DYSFUNCTION” (NPS PHARMACEUTICALS, INC., priority 2010, published 2013)

System: Human patients with short bowel syndrome
Experiment: Example 2: liver biomarkers (albumin, gamma glutamyl transferase, total bilirubin, ALT, AST, ALP) in short bowel syndrome patients, every four weeks for 24 weeks
Format: in vivo
Procedure: To further confirm the results of Example 1, a further study was conducted involving more individuals and additional diagnostic biomarkers. Human patients with short bowel syndrome were divided into two groups: a control group (43 total individuals) to receive placebo, and an experimental group (42 total individuals) to receive teduglutide at 0.05 mg/kg/day throughout the study. Patients were treated by subcutaneous injection of placebo or the appropriate dose of teduglutide. Known biomarkers of liver function were monitored every four weeks, for 24 weeks. The liver biomarkers tested included albumin, gamma glutamyl transferase, total bilirubin, ALT and AST and ALP. Before administration of placebo or teduglutide, diagnostic biomarker levels were tested to establish a baseline for each individual.
To determine the effect of GLP-2 on the levels of the diagnostic biomarkers, the average level of each biomarker was measured for the placebo and teduglutide treated groups for each visit. Furthermore, the average change from baseline was calculated using the established baseline values. For FIGS. 17-28, p-values were calculated using the t-test.
P values are provided, which were calculated for each distribution of biomarker changes for each week using the chi-squared test.

[1] = Endpoint (last assessment after start of treatment), 0.05 mg/kg/d, n=42
[2] = Endpoint (last assessment), 0.05 mg/kg/d, m=42

In the case of `CC[C@H](C)[C@H](NC(=O)[C@H](Cc1ccccc1)NC(=O)[C@H](CC(=O)O)NC(=O)[C@H](CCCNC(=N)N)NC(=O)[C@H](C)NC(=O)[C@H](C)NC(=O)[C@H](CC(C)C)NC(=O)[C@H](CC(N)=O)NC(=O)[C@H](CC(=O)O)NC(=O)[C@H](CC(C)C)NC(=O)[C@@H](NC(=O)[C@@H](NC(=O)[C@H](CC(N)=O)NC(=O)[C@H](CCSC)NC(=O)[C@H](CCC(=O)O)NC(=O)[C@H](CC(=O)O)NC(=O)[C@H](CO)NC(=O)[C@H](Cc1ccccc1)NC(=O)[C@H](CO)NC(=O)CNC(=O)[C@H](CC(=O)O)NC(=O)CNC(=O)[C@@H](N)Cc1c[nH]cn1)[C@@H](C)O)[C@@H](C)CC)C(=O)N[C@@H](CC(N)=O)C(=O)N[C@@H](Cc1c[nH]c2ccccc12)C(=O)N[C@@H](CC(C)C)C(=O)N[C@H](C(=O)N[C@@H](CCC(N)=O)C(=O)N[C@H](C(=O)N[C@@H](CCCCN)C(=O)N[C@H](C(=O)N[C@H](C(=O)N[C@@H](CC(=O)O)C(=O)O)[C@@H](C)O)[C@@H](C)CC)[C@@H](C)O)[C@@H](C)CC` [teduglutide], the “average level of diagnostic biomarkers elevated in liver dysfunction versus placebo cohort” value (0.05 mg/kg/day) was “lower level, on average”, the “likelihood of a >10% decrease in liver biomarkers versus placebo” value (0.05 mg/kg/day) was “more likely” and the “likelihood of a >10% increase in liver biomarkers versus placebo” value (0.05 mg/kg/day) was “less likely”. For the same compound, the “measured level of albumin relative to placebo cohort” value (0.05 mg/kg/day, as treatment progressed) was “became elevated”, the “ALKALINE PHOSPHATASE Change from Baseline, Median” value [1] was −22 U/L and the “ALT Change from Baseline, Mean” value [1] was −12.1 U/L. The “ALT Change from Baseline, Median” value [1] was −4 U/L, the “ALT Observed Value, Mean” value [1] was 31.0 U/L and the “ALT Observed Value, Median” value [1] was 23.5 U/L. For the same compound, the “AST Change from Baseline, Mean” value [1] was −5.4 U/L, the “AST Change from Baseline, Median” value [1] was −3 U/L and the “AST Observed Value, Mean” value [1] was 27.0 U/L. The “AST Observed Value, Median” value [1] was 24 U/L, the “Albumin Change from Baseline, Mean” value [1] was -0.5 g/L and the “Albumin Change from Baseline, Median” value [1] was 0 g/L. The “Albumin Observed Value, Mean” value [1] was 41.9 g/L, the “Albumin Observed Value, Median” value [1] was 42 g/L and the “Alkaline Phosphatase Change from Baseline, Mean” value [1] was −28.3 U/L. For the same compound, the “Alkaline Phosphatase Observed Value, Mean” value [1] was 106.4 U/L, the “Alkaline Phosphatase Observed Value, Median” value [1] was 90.5 U/L and the “Bilirubin Change from Baseline, Mean” value [1] was -3.33 µmol/L. For the same compound, the “Bilirubin Change from Baseline, Median” value [1] was -1.95 µmol/L, the “Bilirubin Observed Value, Mean” value [1] was 8.87 µmol/L and the “Bilirubin Observed Value, Median” value [1] was 6.95 µmol/L. For the same compound, the “Gamma Glutamyl Transferase Change from Baseline, Mean” value [1] was −12.8 U/L, the “Gamma Glutamyl Transferase Change from Baseline, Median” value [1] was −6 U/L and the “Gamma Glutamyl Transferase Observed Value, Mean” value [1] was 62.3 U/L. The “Gamma Glutamyl Transferase Observed Value, Median” value [1] was 42 U/L, the “ALT >10% decrease from Baseline, % of subjects” value [2] was “(59.5%)” and the “ALT >10% decrease from Baseline, n subjects” value [2] was 25. For the same compound, the “ALT >10% increase from Baseline, % of subjects” value [2] was “(11.9%)”, the “ALT >10% increase from Baseline, n subjects” value [2] was 5 and the “ALT Within 10% of Baseline, % of subjects” value [2] was “(28.6%)”. The “ALT Within 10% of Baseline, n subjects” value [2] was 12, the “AST >10% decrease from Baseline, % of subjects” value [2] was “(59.5%)” and the “AST >10% decrease from Baseline, n subjects” value [2] was 25. For the same compound, the “AST >10% increase from Baseline, % of subjects” value [2] was “(14.3%)”, the “AST >10% increase from Baseline, n subjects” value [2] was 6 and the “AST Within 10% of Baseline, % of subjects” value [2] was “(26.2%)”. The “AST Within 10% of Baseline, n subjects” value [2] was 11, the “Albumin >10% decrease from Baseline, % of subjects” value [2] was “(4.8%)” and the “Albumin >10% decrease from Baseline, n subjects” value [2] was 2. For the same compound, the “Albumin >10% increase from Baseline, n subjects” value [2] was 0, the “Albumin Within 10% of Baseline, % of subjects” value [2] was “(95.2%)” and the “Albumin Within 10% of Baseline, n subjects” value [2] was 40. The “Alkaline Phosphatase >10% decrease from Baseline, % of subjects” value [2] was “(57.1%)”, the “Alkaline Phosphatase >10% decrease from Baseline, n subjects” value [2] was 24 and the “Alkaline Phosphatase >10% increase from Baseline, % of subjects” value [2] was “(14.3%)”. The “Alkaline Phosphatase >10% increase from Baseline, n subjects” value [2] was 6, the “Alkaline Phosphatase Within 10% of Baseline, % of subjects” value [2] was “(28.6%)” and the “Alkaline Phosphatase Within 10% of Baseline, n subjects” value [2] was 12. For the same compound, the “Bilirubin >10% decrease from Baseline, % of subjects” value [2] was “(64.3%)”, the “Bilirubin >10% decrease from Baseline, n subjects” value [2] was 27 and the “Bilirubin >10% increase from Baseline, % of subjects” value [2] was “(16.7%)”. The “Bilirubin >10% increase from Baseline, n subjects” value [2] was 7, the “Bilirubin Within 10% of Baseline, % of subjects” value [2] was “(19.0%)” and the “Bilirubin Within 10% of Baseline, n subjects” value [2] was 8. The “ALT >10% decrease from Baseline, % of subjects” value (Week 2, 0.05 mg/kg/d, m=40) was “(57.5%)”, the “ALT >10% decrease from Baseline, n subjects” value (Week 2, 0.05 mg/kg/d, m=40) was 23 and the “ALT >10% increase from Baseline, % of subjects” value (Week 2, 0.05 mg/kg/d, m=40) was “(17.5%)”. For the same compound, the “ALT >10% increase from Baseline, n subjects” value (Week 2, 0.05 mg/kg/d, m=40) was 7, the “ALT Within 10% of Baseline, % of subjects” value (Week 2, 0.05 mg/kg/d, m=40) was “(25.0%)” and the “ALT Within 10% of Baseline, n subjects” value (Week 2, 0.05 mg/kg/d, m=40) was 10. For the same compound, the “AST >10% decrease from Baseline, % of subjects” value (Week 2, 0.05 mg/kg/d, m=40) was “(50.0%)”, the “AST >10% decrease from Baseline, n subjects” value (Week 2, 0.05 mg/kg/d, m=40) was 20 and the “AST >10% increase from Baseline, % of subjects” value (Week 2, 0.05 mg/kg/d, m=40) was “(12.5%)”. For the same compound, the “AST >10% increase from Baseline, n subjects” value (Week 2, 0.05 mg/kg/d, m=40) was 5, the “AST Within 10% of Baseline, % of subjects” value (Week 2, 0.05 mg/kg/d, m=40) was “(37.5%)” and the “AST Within 10% of Baseline, n subjects” value (Week 2, 0.05 mg/kg/d, m=40) was 15. The “Albumin >10% decrease from Baseline, % of subjects” value (Week 2, 0.05 mg/kg/d, m=40) was “(7.5%)”, the “Albumin >10% decrease from Baseline, n subjects” value (Week 2, 0.05 mg/kg/d, m=40) was 3 and the “Albumin >10% increase from Baseline, n subjects” value (Week 2, 0.05 mg/kg/d, m=40) was 0. The “Albumin Within 10% of Baseline, % of subjects” value (Week 2, 0.05 mg/kg/d, m=40) was “(92.5%)”, the “Albumin Within 10% of Baseline, n subjects” value (Week 2, 0.05 mg/kg/d, m=40) was 37 and the “Alkaline Phosphatase >10% decrease from Baseline, % of subjects” value (Week 2, 0.05 mg/kg/d, m=40) was “(37.5%)”. For the same compound, the “Alkaline Phosphatase >10% decrease from Baseline, n subjects” value (Week 2, 0.05 mg/kg/d, m=40) was 15, the “Alkaline Phosphatase >10% increase from Baseline, % of subjects” value (Week 2, 0.05 mg/kg/d, m=40) was “(15.0%)” and the “Alkaline Phosphatase >10% increase from Baseline, n subjects” value (Week 2, 0.05 mg/kg/d, m=40) was 6. For the same compound, the “Alkaline Phosphatase Within 10% of Baseline, % of subjects” value (Week 2, 0.05 mg/kg/d, m=40) was “(47.5%)”, the “Alkaline Phosphatase Within 10% of Baseline, n subjects” value (Week 2, 0.05 mg/kg/d, m=40) was 19 and the “Bilirubin >10% decrease from Baseline, % of subjects” value (Week 2, 0.05 mg/kg/d, m=40) was “(70.0%)”. For the same compound, the “Bilirubin >10% decrease from Baseline, n subjects” value (Week 2, 0.05 mg/kg/d, m=40) was 28, the “Bilirubin >10% increase from Baseline, % of subjects” value (Week 2, 0.05 mg/kg/d, m=40) was “(17.5%)” and the “Bilirubin >10% increase from Baseline, n subjects” value (Week 2, 0.05 mg/kg/d, m=40) was 7. The “Bilirubin Within 10% of Baseline, % of subjects” value (Week 2, 0.05 mg/kg/d, m=40) was “(12.5%)”, the “Bilirubin Within 10% of Baseline, n subjects” value (Week 2, 0.05 mg/kg/d, m=40) was 5 and the “ALKALINE PHOSPHATASE Change from Baseline, Median” value (Week 2, 0.05 mg/kg/d, n=40) was −8 U/L. The “ALT Change from Baseline, Mean” value (Week 2, 0.05 mg/kg/d, n=40) was −8.9 U/L, the “ALT Change from Baseline, Median” value (Week 2, 0.05 mg/kg/d, n=40) was −5.5 U/L and the “ALT Observed Value, Mean” value (Week 2, 0.05 mg/kg/d, n=40) was 35.2 U/L. The “ALT Observed Value, Median” value (Week 2, 0.05 mg/kg/d, n=40) was 27.5 U/L, the “AST Change from Baseline, Mean” value (Week 2, 0.05 mg/kg/d, n=40) was −3.6, U/L and the “AST Change from Baseline, Median” value (Week 2, 0.05 mg/kg/d, n=40) was −3 U/L. For the same compound, the “AST Observed Value, Mean” value (Week 2, 0.05 mg/kg/d, n=40) was 29.0 U/L, the “AST Observed Value, Median” value (Week 2, 0.05 mg/kg/d, n=40) was 24.5 U/L and the “Albumin Change from Baseline, Mean” value (Week 2, 0.05 mg/kg/d, n=40) was -0.9 g/L. For the same compound, the “Albumin Change from Baseline, Median” value (Week 2, 0.05 mg/kg/d, n=40) was -1 g/L, the “Albumin Observed Value, Mean” value (Week 2, 0.05 mg/kg/d, n=40) was 41.5 g/L and the “Albumin Observed Value, Median” value (Week 2, 0.05 mg/kg/d, n=40) was 42 g/L. For the same compound, the “Alkaline Phosphatase Change from Baseline, Mean” value (Week 2, 0.05 mg/kg/d, n=40) was −12.5 U/L, the “Alkaline Phosphatase Observed Value, Mean” value (Week 2, 0.05 mg/kg/d, n=40) was 123.7 U/L and the “Alkaline Phosphatase Observed Value, Median” value (Week 2, 0.05 mg/kg/d, n=40) was 104 U/L. The “Bilirubin Change from Baseline, Mean” value (Week 2, 0.05 mg/kg/d, n=40) was -2.12 µmol/L, the “Bilirubin Change from Baseline, Median” value (Week 2, 0.05 mg/kg/d, n=40) was -1.85 µmol/L and the “Bilirubin Observed Value, Mean” value (Week 2, 0.05 mg/kg/d, n=40) was 10.29 µmol/L. For the same compound, the “Bilirubin Observed Value, Median” value (Week 2, 0.05 mg/kg/d, n=40) was 7.65 µmol/L and the “Gamma Glutamyl Transferase Change from Baseline, Mean” value (Week 2, 0.05 mg/kg/d, n=40) was 7.4 U/L.
